Reference: patent US9340600B2 (Indiana University Research and Technology Corporation, priority 2012, dated 2016)
*1 amine or outer side, *2 acyl side, *3 side chain or, on linkers, in order; H or OH if unused. Where a SMILES comes first, the peptide text is derived from it. Side-chain parts run from the residue outwards. [ ]: non-standard residue; d: D form. The star is where a group is joined. γGlu = O=C(O)[C@H](CCC(=O)[*:2])N[*:1]; Palmitoyl = CCCCCCCCCCCCCCCC(=O)*; hSer = N[C@@H](CCO)C(=O)O; Aib = CC(C)(N)C(=O)O

Assays:
Assay type in all cases: cell-based
glucagon receptor = target: T1, glucagon receptor (Homo sapiens, UniProt P47871); assay: cAMP induction, firefly luciferase-based reporter assay in HEK293 cells co-transfected with glucagon receptor; conditions: for EC50: EC50 at Glucagon Receptor
T1 construct: expressed in transfected cells; host or cells: HEK293
Excerpt: (§1) This example describes an exemplary method of testing the biological activity of the peptides of the present disclosures, which method involves assaying cAMP synthesis.

GLP-1 receptor = target: T2, GLP-1 receptor (Homo sapiens, UniProt P43220); assay: cAMP induction, firefly luciferase-based reporter assay in HEK293 cells co-transfected with GLP-1 receptor; conditions: EC50 at GLP-1 Receptor
T2 construct: expressed in transfected cells; host or cells: HEK293
Excerpt: as §1

GIP receptor = target: T3, GIP receptor (Homo sapiens, UniProt P48546); assay: cAMP induction, firefly luciferase-based reporter assay in HEK293 cells co-transfected with GIP receptor; conditions: EC50 at GIP Receptor
T3 construct: expressed in transfected cells; host or cells: HEK293
T3 sequence (P48546 22-466): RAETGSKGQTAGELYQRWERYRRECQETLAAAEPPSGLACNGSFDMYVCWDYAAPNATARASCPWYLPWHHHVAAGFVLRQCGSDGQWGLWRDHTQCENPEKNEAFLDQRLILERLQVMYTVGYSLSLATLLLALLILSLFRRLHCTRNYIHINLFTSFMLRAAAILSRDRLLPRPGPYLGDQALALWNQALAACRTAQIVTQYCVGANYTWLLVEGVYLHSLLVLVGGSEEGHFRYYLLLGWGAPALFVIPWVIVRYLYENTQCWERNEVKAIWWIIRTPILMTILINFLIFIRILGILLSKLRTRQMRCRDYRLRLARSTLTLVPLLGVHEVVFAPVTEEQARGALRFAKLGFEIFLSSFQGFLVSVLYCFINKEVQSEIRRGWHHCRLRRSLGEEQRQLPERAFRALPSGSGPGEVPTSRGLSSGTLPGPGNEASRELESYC
Excerpt: as §1

[1] = Table 3, analogs of SEQ ID NO: 18 varying at position 3
[2] = Table 4, analogs of SEQ ID NO: 43 varying at position 3
[3] = Table 5, analogs of SEQ ID NO: 10
[4] = Table 2, analogs of SEQ ID NO: 18 varying at positions 16-21

T1 sequence (P47871 26-477): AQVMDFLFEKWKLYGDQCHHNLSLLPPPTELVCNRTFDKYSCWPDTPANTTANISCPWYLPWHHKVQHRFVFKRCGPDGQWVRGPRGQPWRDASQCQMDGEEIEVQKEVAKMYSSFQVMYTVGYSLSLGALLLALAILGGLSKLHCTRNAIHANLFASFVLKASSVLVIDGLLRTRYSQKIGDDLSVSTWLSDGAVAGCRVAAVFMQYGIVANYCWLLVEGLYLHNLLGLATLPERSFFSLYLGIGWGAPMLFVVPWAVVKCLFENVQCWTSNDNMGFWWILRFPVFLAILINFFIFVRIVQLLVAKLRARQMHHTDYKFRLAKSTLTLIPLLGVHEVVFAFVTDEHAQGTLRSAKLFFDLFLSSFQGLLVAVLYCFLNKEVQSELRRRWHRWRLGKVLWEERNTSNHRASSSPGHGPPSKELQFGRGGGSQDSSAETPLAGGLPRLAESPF
T2 sequence (P43220 24-463): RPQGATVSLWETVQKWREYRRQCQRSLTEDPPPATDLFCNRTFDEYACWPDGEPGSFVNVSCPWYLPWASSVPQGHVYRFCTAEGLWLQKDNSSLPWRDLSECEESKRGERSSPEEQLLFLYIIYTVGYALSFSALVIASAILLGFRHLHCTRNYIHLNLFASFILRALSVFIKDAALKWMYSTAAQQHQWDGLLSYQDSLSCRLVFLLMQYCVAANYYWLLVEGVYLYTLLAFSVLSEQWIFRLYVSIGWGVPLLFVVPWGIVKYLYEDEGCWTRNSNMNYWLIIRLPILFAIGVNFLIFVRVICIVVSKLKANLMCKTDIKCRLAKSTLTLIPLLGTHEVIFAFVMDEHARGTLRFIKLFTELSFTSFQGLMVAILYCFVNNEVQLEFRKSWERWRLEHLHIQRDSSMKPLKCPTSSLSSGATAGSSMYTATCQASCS

Row | SMILES | EC50 (GLP-1 receptor; [1]) | EC50 (GIP receptor; [1]) | EC50 (glucagon receptor; [2]) | EC50 (GLP-1 receptor; [2]) | EC50 (GIP receptor; [2]) | further results
1 | CCCCCCCCCCCCCCCC(=O)N[C@@H](CCC(=O)NCCCC[C@H](NC(=O)[C@H](CC(=O)O)NC(=O)[C@H](CO)NC(=O)[C@@H](NC(=O)[C@H](Cc1ccccc1)NC(=O)[C@@H](NC(=O)CNC(=O)[C@@H](NC(=O)C(C)(C)NC(=O)[C@@H](N)Cc1c[nH]cn1)[C@@H](C)CC)[C@@H](C)O)[C@@H](C)O)C(=O)N[C@@H](CO)C(=O)N[C@@H](CCCCN)C(=O)N[C@@H](Cc1ccc(O)cc1)C(=O)N[C@@H](CC(C)C)C(=O)N[C@@H](CCC(=O)O)C(=O)N[C@@H](CCC(=O)O)C(=O)N[C@@H](CCCNC(=N)N)C(=O)N[C@@H](C)C(=O)N[C@@H](C)C(=O)N[C@@H](CCC(N)=O)C(=O)N[C@@H](CCC(=O)O)C(=O)N[C@@H](Cc1ccccc1)C(=O)N[C@H](C(=O)N[C@@H](CCC(N)=O)C(=O)N[C@@H](Cc1c[nH]c2ccccc12)C(=O)N[C@@H](CC(C)C)C(=O)N[C@@H](CC(C)C)C(=O)N[C@@H](CCC(=O)O)C(=O)NCC(=O)NCC(=O)N1CCC[C@H]1C(=O)N[C@@H](CO)C(=O)N[C@@H](CO)C(=O)NCC(=O)N[C@@H](C)C(=O)N1CCC[C@H]1C(=O)N1CCC[C@H]1C(=O)N1CCC[C@H]1C(=O)N[C@@H](CO)C(N)=O)C(C)C)C(=O)O [compound 30] (H-H[Aib]IGTFTSDK([γGlu-Palmitoyl])SKYLEERAAQEFVQWLLEGGPSSGAPPPS-NH2) | 250 pM | 423 pM | – | – | – | EC50 at Glucagon Receptor (glucagon receptor; [1]): Not active
2 | CCCCCCCCCCCCCCCC(=O)N[C@@H](CCC(=O)NCCCC[C@H](NC(=O)[C@H](CC(=O)O)NC(=O)[C@H](CO)NC(=O)[C@@H](NC(=O)[C@H](Cc1ccccc1)NC(=O)[C@@H](NC(=O)CNC(=O)[C@H](C)NC(=O)C(C)(C)NC(=O)[C@@H](N)Cc1c[nH]cn1)[C@@H](C)O)[C@@H](C)O)C(=O)N[C@@H](CO)C(=O)N[C@@H](CCCCN)C(=O)N[C@@H](Cc1ccc(O)cc1)C(=O)N[C@@H](CC(C)C)C(=O)N[C@@H](CCC(=O)O)C(=O)N[C@@H](CCC(=O)O)C(=O)N[C@@H](CCCNC(=N)N)C(=O)N[C@@H](C)C(=O)N[C@@H](C)C(=O)N[C@@H](CCC(N)=O)C(=O)N[C@@H](CCC(=O)O)C(=O)N[C@@H](Cc1ccccc1)C(=O)N[C@H](C(=O)N[C@@H](CCC(N)=O)C(=O)N[C@@H](Cc1c[nH]c2ccccc12)C(=O)N[C@@H](CC(C)C)C(=O)N[C@@H](CC(C)C)C(=O)N[C@@H](CCC(=O)O)C(=O)NCC(=O)NCC(=O)N1CCC[C@H]1C(=O)N[C@@H](CO)C(=O)N[C@@H](CO)C(=O)NCC(=O)N[C@@H](C)C(=O)N1CCC[C@H]1C(=O)N1CCC[C@H]1C(=O)N1CCC[C@H]1C(=O)N[C@@H](CO)C(N)=O)C(C)C)C(=O)O [compound 35] (H-H[Aib]AGTFTSDK([γGlu-Palmitoyl])SKYLEERAAQEFVQWLLEGGPSSGAPPPS-NH2; N-terminus assumed) | 2 pM | 6 pM | – | – | – | EC50 (glucagon receptor; [1]): 73 pM
3 | CCCCCCCCCCCCCCCC(=O)N[C@@H](CCC(=O)NCCCC[C@H](NC(=O)[C@H](CC(=O)O)NC(=O)[C@H](CO)NC(=O)[C@@H](NC(=O)[C@H](Cc1ccccc1)NC(=O)[C@@H](NC(=O)CNC(=O)[C@@H](NC(=O)C(C)(C)NC(=O)[C@@H](N)Cc1c[nH]cn1)C(C)C)[C@@H](C)O)[C@@H](C)O)C(=O)N[C@@H](CO)C(=O)N[C@@H](CCCCN)C(=O)N[C@@H](Cc1ccc(O)cc1)C(=O)N[C@@H](CC(C)C)C(=O)N[C@@H](CC(=O)O)C(=O)N[C@@H](CCC(=O)O)C(=O)N[C@@H](CCCNC(=N)N)C(=O)N[C@@H](C)C(=O)N[C@@H](C)C(=O)N[C@@H](CCC(N)=O)C(=O)N[C@@H](CC(=O)O)C(=O)N[C@@H](Cc1ccccc1)C(=O)N[C@H](C(=O)N[C@@H](CCC(N)=O)C(=O)N[C@@H](Cc1c[nH]c2ccccc12)C(=O)N[C@@H](CC(C)C)C(=O)N[C@@H](CC(C)C)C(=O)N[C@@H](CCC(=O)O)C(=O)NCC(=O)NCC(=O)N1CCC[C@H]1C(=O)N[C@@H](CO)C(=O)N[C@@H](CO)C(=O)NCC(=O)N[C@@H](C)C(=O)N1CCC[C@H]1C(=O)N1CCC[C@H]1C(=O)N1CCC[C@H]1C(=O)N[C@@H](CO)C(N)=O)C(C)C)C(=O)O [compound 45] (H-H[Aib]VGTFTSDK([γGlu-Palmitoyl])SKYLDERAAQDFVQWLLEGGPSSGAPPPS-NH2) | – | – | 26 pM | 6 pM | 5 pM | –
4 | CCCCCCCCCCCCCCCC(=O)N[C@@H](CCC(=O)NCCCC[C@H](NC(=O)[C@H](CC(=O)O)NC(=O)[C@H](CO)NC(=O)[C@@H](NC(=O)[C@H](Cc1ccccc1)NC(=O)[C@@H](NC(=O)CNC(=O)[C@H](CCC(N)=O)NC(=O)C(C)(C)NC(=O)[C@@H](N)Cc1c[nH]cn1)[C@@H](C)O)[C@@H](C)O)C(=O)N[C@@H](CO)C(=O)N[C@@H](CCCCN)C(=O)N[C@@H](Cc1ccc(O)cc1)C(=O)N[C@@H](CC(C)C)C(=O)N[C@@H](CC(=O)O)C(=O)N[C@@H](CCC(=O)O)C(=O)N[C@@H](CCCNC(=N)N)C(=O)N[C@@H](C)C(=O)N[C@@H](C)C(=O)N[C@@H](CCC(N)=O)C(=O)N[C@@H](CC(=O)O)C(=O)N[C@@H](Cc1ccccc1)C(=O)N[C@H](C(=O)N[C@@H](CCC(N)=O)C(=O)N[C@@H](Cc1c[nH]c2ccccc12)C(=O)N[C@@H](CC(C)C)C(=O)N[C@@H](CC(C)C)C(=O)N[C@@H](CC(=O)O)C(=O)N[C@H](C(=O)NCC(=O)N1CCC[C@H]1C(=O)N[C@@H](CO)C(=O)N[C@@H](CO)C(=O)NCC(=O)N[C@@H](C)C(=O)N1CCC[C@H]1C(=O)N1CCC[C@H]1C(=O)N1CCC[C@H]1C(=O)N[C@@H](CO)C(N)=O)C(C)C)C(C)C)C(=O)O [compound 63] (H-H[Aib]QGTFTSDK([γGlu-Palmitoyl])SKYLDERAAQDFVQWLLDVGPSSGAPPPS-NH2; N-terminus assumed) | – | – | – | – | – | EC50 (glucagon receptor; [3]): 4 pM; EC50 (GLP-1 receptor; [3]): 3 pM; EC50 (GIP receptor; [3]): 55 pM
5 | CCCCCCCCCCCCCCCC(=O)N[C@@H](CCC(=O)NCCCC[C@H](NC(=O)[C@H](CC(=O)O)NC(=O)[C@H](CO)NC(=O)[C@@H](NC(=O)[C@H](Cc1ccccc1)NC(=O)[C@@H](NC(=O)CNC(=O)[C@H](CCO)NC(=O)C(C)(C)NC(=O)[C@@H](N)Cc1c[nH]cn1)[C@@H](C)O)[C@@H](C)O)C(=O)N[C@@H](CO)C(=O)N[C@@H](CCCCN)C(=O)N[C@@H](Cc1ccc(O)cc1)C(=O)N[C@@H](CC(C)C)C(=O)N[C@@H](CC(=O)O)C(=O)N[C@@H](CCC(=O)O)C(=O)N[C@@H](CCCNC(=N)N)C(=O)N[C@@H](C)C(=O)N[C@@H](C)C(=O)N[C@@H](CCC(N)=O)C(=O)N[C@@H](CC(=O)O)C(=O)N[C@@H](Cc1ccccc1)C(=O)N[C@H](C(=O)N[C@@H](CCC(N)=O)C(=O)N[C@@H](Cc1c[nH]c2ccccc12)C(=O)N[C@@H](CC(C)C)C(=O)N[C@@H](CC(C)C)C(=O)N[C@@H](CCC(=O)O)C(=O)NCC(=O)NCC(=O)N1CCC[C@H]1C(=O)N[C@@H](CO)C(=O)N[C@@H](CO)C(=O)NCC(=O)N[C@@H](C)C(=O)N1CCC[C@H]1C(=O)N1CCC[C@H]1C(=O)N1CCC[C@H]1C(=O)N[C@@H](CO)C(N)=O)C(C)C)C(=O)O [compound 48] (H-H[Aib][hSer]GTFTSDK([γGlu-Palmitoyl])SKYLDERAAQDFVQWLLEGGPSSGAPPPS-NH2) | – | – | 16 pM | 3 pM | 4 pM | –
6 | CCCCCCCCCCCCCCCC(=O)N[C@@H](CCC(=O)NCCCC[C@H](NC(=O)[C@H](CC(=O)O)NC(=O)[C@H](CO)NC(=O)[C@@H](NC(=O)[C@H](Cc1ccccc1)NC(=O)[C@@H](NC(=O)CNC(=O)[C@H](CCC(N)=O)NC(=O)C(C)(C)NC(=O)[C@@H](N)Cc1c[nH]cn1)[C@@H](C)O)[C@@H](C)O)C(=O)N[C@@H](CO)C(=O)N[C@@H](CCCCN)C(=O)N[C@@H](Cc1ccc(O)cc1)C(=O)N[C@@H](CC(C)C)C(=O)N[C@@H](CC(=O)O)C(=O)N[C@@H](CCCCN)C(=O)N[C@@H](Cc1c[nH]cn1)C(=O)N[C@@H](C)C(=O)N[C@@H](C)C(=O)NC(C)(C)C(=O)N[C@@H](CCC(=O)O)C(=O)N[C@@H](Cc1ccccc1)C(=O)N[C@H](C(=O)N[C@@H](CCC(N)=O)C(=O)N[C@@H](Cc1c[nH]c2ccccc12)C(=O)N[C@@H](CC(C)C)C(=O)N[C@@H](CC(C)C)C(=O)N[C@@H](CC(=O)O)C(=O)NCC(=O)NCC(=O)N1CCC[C@H]1C(=O)N[C@@H](CO)C(=O)N[C@@H](CO)C(=O)NCC(=O)N[C@@H](C)C(=O)N1CCC[C@H]1C(=O)N1CCC[C@H]1C(=O)N1CCC[C@H]1C(=O)N[C@@H](CO)C(N)=O)C(C)C)C(=O)O [compound 28] (H-H[Aib]QGTFTSDK([γGlu-Palmitoyl])SKYLDKHAA[Aib]EFVQWLLDGGPSSGAPPPS-NH2; N-terminus assumed) | – | – | – | – | – | EC50 (glucagon receptor; [4]): 6 pM; EC50 (GLP-1 receptor; [4]): 2 pM; EC50 (GIP receptor; [4]): 1 pM
